Measurements as given in article PMC9053583, “A novel series of phenolic temozolomide (TMZ) esters with 4 to 5-fold increased potency, compared to TMZ, against glioma cells irrespective of MGMT expression” (RSC Advances, 2020).

Columns and labels:
U87-MG cells = experiment: CellTiter-Glo cytotoxicity against U87-MG cells; type: cell-based; conditions: Homo sapiens, U-87 MG; initial screening, 144 hours incubation, CellTiter-Glo, IC50 ± SD (n = 3); read-out: IC50 against U87-MG cells
Description: Apoptosis of glioma cells induced by TMZ, occurs at least 120 hours after treatment.[7] Consequently, cells were incubated for 144 hours with specified TMZ analogues in the in vitro investigations in order to obtain more reliable IC50 values.
1321-N1 (human astrocytoma) was maintained in DMEM medium supplemented with 2 mM L-glutamine and 10% FBS. GOS-3, (human brain mixed astro-oligodendroglioma) was maintained in DMEM medium supplemented with 2 mM L-glutamine and 10% […]. U87-MG, (human glioblastoma) and SVGp12 (normal human astroglia) were maintained in EMEM medium supplemented with 2 mM L-glutamine, 1 mM sodium pyruvate and 10% FBS. All cell lines were incubated at 37 °C and 5% CO2 in a humidified incubator. Primary BTNW cultures were maintained in Ham's F10 nutrient mixture, containing 20 mM HEPES, 2 mM glutamine and 10% FBS. Primary cultures were incubated in a humidified incubator at 37 °C.
(§1) Cells were seeded in the appropriate media in each well of a Costar 96-well plate at a density of 5 × 10^2 immortalised cells; 2 × 10^3 (primary cells). The plates were incubated at 37 °C and 5% CO2 in a humidified incubator for 24 hours to allow cells to adhere. Each of the drugs tested were dissolved in DMSO to afford a 200 mM stock solution. The stock solutions were diluted with medium to afford the final working concentrations, ensuring DMSO concentration was no greater than 0.5% (v/v). Drug concentrations were added to the cells and incubated for 144 hours. After incubation, the drug concentrations were removed and replaced with 100 μL of CellTiter-Glo® and 100 μL of media. The luminescence of each well was measured on GENios Pro plate reader. The results for each of the drug concentrations were expressed as a percentage of the control wells. For cell lines, the regression equation for a polynomial line of best fit of order 2 was used to calculate the IC50. In the case of the in vitro model used in the present study, the IC50 was defined as the concentration of drug that results in a 50% reduction in oxyluciferin production. Primary culture cells were incubated with clinically relevant concentrations for 144 hours. Viability was expressed as a percentage of the control wells. Each experiment involving cell lines was carried out in triplicate of triplicates. Experiments using patient derived primary cultures were carried out in triplicate.
Initial screening of the 25 analogues was completed using the U87-MG cell line. The most promising analogues from the initial screening were taken forward and tested against the 1321-N1, GOS-3 and SVG-p12 cell lines. The results of all 4 cell lines were compiled and the analogues that were deemed to be the most promising drug candidates were tested against primary cultures at clinically relevant concentrations.

[1] = Solubility in cell culture medium; type: physicochemical
Description: The maximum concentration that could be achieved in medium for amide analogues 4a and 4c was approximately 200 μM, at which IC50 values could not be generated and were also eliminated from further studies.
as §1

SMILES | melting point [°C] | solubility in cell culture medium [1] | IC50 (U87-MG cells) [µM]
CN(C)CCCOC(=O)c1ncn2c(=O)n(C)nnc12 [Analogue 3g, 3-(Dimethylamino)propyl 3-methyl-4-oxo-3,4-dihydroimidazo[5,1-d][1,2,3,5]tetrazine-8-carboxylate] | 204 |  | 856 ± 20
Cn1nnc2c(C(=O)OCCc3ccccc3)ncn2c1=O [Analogue 3c, Phenethyl 3-methyl-4-oxo-3,4-dihydroimidazo[5,1-d][1,2,3,5]tetrazine-8-carboxylate] | 124 |  | 615 ± 96
Cn1nnc2c(C(=O)OCCc3ccc([N+](=O)[O-])cc3)ncn2c1=O [Analogue 3d, 4-Nitrophenethyl 3-methyl-4-oxo-3,4-dihydroimidazo[5,1-d][1,2,3,5]tetrazine-8-carboxylate] | 187 | insoluble | 
CCOC(=O)c1ncn2c(=O)n(C)nnc12 [Analogue 3a, Ethyl 3-methyl-4-oxo-3,4-dihydroimidazo[5,1-d][1,2,3,5]tetrazine-8-carboxylate] | 130 |  | 700 ± 109
COc1ccc(CCOC(=O)c2ncn3c(=O)n(C)nnc23)cc1 [Analogue 3e, 4-Methoxyphenethyl 3-methyl-4-oxo-3,4-dihydroimidazo[5,1-d][1,2,3,5]tetrazine-8-carboxylate] | 164 | insoluble | 
COc1ccccc1OC(=O)c1ncn2c(=O)n(C)nnc12 [Analogue 3m, 2-Methoxyphenyl 3-methyl-4-oxo-3,4-dihydroimidazo[5,1-d][1,2,3,5]tetrazine-8-carboxylate] | 165 |  | 576 ± 91

Now from value to compound, other results behind:

melting point [°C] | solubility in cell culture medium [1] | SMILES | IC50 (U87-MG cells) [µM]
152 |  | Cc1ccc(CNC(=O)c2ncn3c(=O)n(C)nnc23)cc1 [Analogue 4j, 3-Methyl-N-(4-methylbenzyl)-4-oxo-3,4-dihydroimidazo[5,1-d][1,2,3,5]tetrazine-8-carboxamide] | 139 ± 28
193 | insoluble | COc1ccccc1NC(=O)c1ncn2c(=O)n(C)nnc12 [Analogue 4h, N-(2-Methoxyphenyl)-3-methyl-4-oxo-3,4-dihydroimidazo[5,1-d][1,2,3,5]tetrazine-8-carboxamide] | 
209 | insoluble | Cc1ccc(NC(=O)c2ncn3c(=O)n(C)nnc23)cc1 [Analogue 4g, 3-Methyl-4-oxo-N-(p-tolyl)-3,4-dihydroimidazo[5,1-d][1,2,3,5]tetrazine-8-carboxamide] | 
158 |  | Cn1nnc2c(C(=O)NCCc3ccccc3)ncn2c1=O [Analogue 4b, 3-Methyl-4-oxo-N-phenethyl-3,4-dihydroimidazo[5,1-d] [1,2,3,5]tetrazine-8-carboxamide] | 548 ± 48
234 | insoluble | Cn1nnc2c(C(=O)Nc3ccc(C#N)cc3)ncn2c1=O [Analogue 4f, N-(4-Cyanophenyl)-3-methyl-4-oxo-3,4-dihydroimidazo[5,1-d][1,2,3,5]tetrazine-8-carboxamide] | 
192 | insoluble | COc1ccc(NC(=O)c2ncn3c(=O)n(C)nnc23)cc1 [Analogue 4d, N-(4-Methoxyphenyl)-3-methyl-4-oxo-3,4-dihydroimidazo[5,1-d][1,2,3,5]tetrazine-8-carboxamide] | 
200 | insoluble | Cn1nnc2c(C(=O)Nc3ccc(Cl)cc3)ncn2c1=O [Analogue 4e, N-(4-Chlorophenyl)-3-methyl-4-oxo-3,4-dihydroimidazo[5,1-d][1,2,3,5]tetrazine-8-carboxamide] | 
193 | insoluble | COc1ccc(CNC(=O)c2ncn3c(=O)n(C)nnc23)cc1 [Analogue 4i, N-(4-Methoxybenzyl)-3-methyl-4-oxo-3,4-dihydroimidazo[5,1-d][1,2,3,5]tetrazine-8-carboxamide] | 
